Measured values: patent US11312719B2, “9-substituted amino triazolo quinazoline derivatives as adenosine receptor antagonists, pharmaceutical compositions and their use” (Merck Sharp & Dohme Corp., priority 2018, dated 2022)

Assays:
human A2A receptors = human A2A receptors (Homo sapiens (Human), UniProt P29274); assay: A2A antagonism in cAMP cell-based assay (LANCE cAMP, HEK293); details: HEK293 cells expressing human A2A receptor
Method in brief: (§1)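 HEK293 cells expressing human A2A or A2B, in HBSS/5 mM HEPES/200 nM rolipram, were preincubated with compound (0.5–10,000 nM, 0.25% DMSO) 30 min at 37° C. Adenosine was then added from 300 nM (A2A) or 600 nM (A2B) solution for 30 min.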

human A2B receptors = human A2B receptors (Homo sapiens (Human), UniProt P29275); assay: A2B antagonism in cAMP cell-based assay (LANCE cAMP, HEK293); details: HEK293 cells expressing human A2B receptor; for A2B cAMP % Inh. @10000 nM: at 10000 nM
Sequence of human A2B receptors (P29275 whole entry): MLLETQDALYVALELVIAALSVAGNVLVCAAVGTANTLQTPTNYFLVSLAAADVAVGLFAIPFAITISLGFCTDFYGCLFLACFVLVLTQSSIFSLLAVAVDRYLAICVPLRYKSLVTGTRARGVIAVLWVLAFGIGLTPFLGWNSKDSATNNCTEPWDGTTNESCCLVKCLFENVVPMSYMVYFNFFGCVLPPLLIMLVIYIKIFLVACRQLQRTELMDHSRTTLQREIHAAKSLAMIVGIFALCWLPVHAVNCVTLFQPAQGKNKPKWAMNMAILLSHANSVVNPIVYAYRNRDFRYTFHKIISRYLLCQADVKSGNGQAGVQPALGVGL
Method in brief: as §1

Sequence of human A2A receptors (P29274 whole entry): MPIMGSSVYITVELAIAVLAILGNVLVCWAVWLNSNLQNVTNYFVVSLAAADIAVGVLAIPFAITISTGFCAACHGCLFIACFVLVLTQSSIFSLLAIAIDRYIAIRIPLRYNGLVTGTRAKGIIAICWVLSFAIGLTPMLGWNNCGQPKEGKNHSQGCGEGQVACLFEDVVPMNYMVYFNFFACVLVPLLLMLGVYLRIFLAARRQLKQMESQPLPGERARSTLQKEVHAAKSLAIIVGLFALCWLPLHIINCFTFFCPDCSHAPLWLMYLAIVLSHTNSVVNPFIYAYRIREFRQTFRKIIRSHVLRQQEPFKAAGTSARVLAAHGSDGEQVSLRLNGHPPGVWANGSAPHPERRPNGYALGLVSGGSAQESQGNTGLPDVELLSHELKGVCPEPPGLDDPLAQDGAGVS

Row | SMILES | IC50 (human A2A receptors) | IC50 (human A2B receptors) | A2B cAMP % Inh. @10000 nM (human A2B receptors)
1 | COc1cc(F)cc2c1nc(N)n1nc(C3CC(C)CN(c4cn(C(C)(C)C(C)O)nc4C)C3)nc21 (single isomer, unassigned) [Example 205, (R or S)-3-(4-((3R,5S or 3S,5R)-3-(5-amino-9-fluoro-7-methoxy-[1,2,4]triazolo[1,5-c]quinazolin-2-yl)-5-methylpiperidin-1-yl)-3-methyl-1H-pyrazol-1-yl)-3-methylbutan-2-ol] | 7 nM | 1150 nM | 
2 | COc1cc(F)cc2c1nc(N)n1nc(C3CC(C)CN(c4cn(C(C)(C)C(C)O)nc4C)C3)nc21 (single isomer, unassigned) [Example 206, (S or R)-3-(4-((3R,5S or 3S,5R)-3-(5-amino-9-fluoro-7-methoxy-[1,2,4]triazolo[1,5-c]quinazolin-2-yl)-5-methylpiperidin-1-yl)-3-methyl-1H-pyrazol-1-yl)-3-methylbutan-2-ol] | 13 nM | 4310 nM | 
3 | COc1cc(F)cc2c1nc(N)n1nc(C3CC(C)CN(c4cn(C(C)(C)C(C)O)nc4C)C3)nc21 (single isomer, unassigned) [Example 207, (R or S)-3-(4-((3S,5R or 3R,5S)-3-(5-amino-9-fluoro-7-methoxy-[1,2,4]triazolo[1,5-c]quinazolin-2-yl)-5-methylpiperidin-1-yl)-3-methyl-1H-pyrazol-1-yl)-3-methylbutan-2-ol] | 0.9 nM | 10.4 nM | 
4 | COc1cc2nc(N)n3nc([C@@H]4C[C@H](C)CN(c5cn([C@@H](C)[C@H](C)O)nc5C)C4)nc3c2cc1F (single isomer, unassigned) [Example 208, (2S,3S or 2R,3R)-3-(4-((3R,5S or 3S,5R)-3-(5-amino-9-fluoro-8-methoxy-[1,2,4]triazolo[1,5-c]quinazolin-2-yl)-5-methylpiperidin-1-yl)-3-methyl-1H-pyrazol-1-yl)butan-2-ol] | 0.7 nM | 2800 nM | 
5 | COc1cc2nc(N)n3nc([C@@H]4C[C@H](C)CN(c5cn([C@H](C)[C@@H](C)O)nc5C)C4)nc3c2cc1F (single isomer, unassigned) [Example 209, (2R,3R or 2S,3S)-3-(4-((3R,5S or 3S,5R)-3-(5-amino-9-fluoro-8-methoxy-[1,2,4]triazolo[1,5-c]quinazolin-2-yl)-5-methylpiperidin-1-yl)-3-methyl-1H-pyrazol-1-yl)butan-2-ol] | 0.7 nM | 635 nM | 
6 | COc1cc2nc(N)n3nc([C@H]4C[C@@H](C)CN(c5cn([C@H](C)[C@@H](C)O)nc5C)C4)nc3c2cc1F (single isomer, unassigned) [Example 210, (2R,3R or 2S,3S)-3-(4-((3S,5R or 3R,5S)-3-(5-amino-9-fluoro-8-methoxy-[1,2,4]triazolo[1,5-c]quinazolin-2-yl)-5-methylpiperidin-1-yl)-3-methyl-1H-pyrazol-1-yl)butan-2-ol] | 16.2 nM |  | 35% Inh.
7 | COc1cc2nc(N)n3nc([C@H]4C[C@@H](C)CN(c5cn([C@@H](C)[C@H](C)O)nc5C)C4)nc3c2cc1F (single isomer, unassigned) [Example 211, (2S,3S or 2R,3R)-3-(4-((3S,5R or 3R,5S)-3-(5-amino-9-fluoro-8-methoxy-[1,2,4]triazolo[1,5-c]quinazolin-2-yl)-5-methylpiperidin-1-yl)-3-methyl-1H-pyrazol-1-yl)butan-2-ol] | 89.3 nM | > 10000 nM | 

Continued, in another order:

Row | IC50 (human A2A receptors) | IC50 (human A2B receptors) | SMILES | A2B cAMP % Inh. @10000 nM (human A2B receptors)
8 | 4.3 nM | 52.4 nM | CC(O)C(C)n1cc(N2CCC[C@@H](c3nc4c5cc(F)cc(F)c5nc(N)n4n3)C2)cn1 (single isomer, unassigned) [Example 198, (2R,3R or 2S,3S)-3-(4-((R)-3-(5-amino-7,9-difluoro-[1,2,4]triazolo[1,5-c]quinazolin-2-yl)piperidin-1-yl)-1H-pyrazol-1-yl)butan-2-ol] | 
9 | 2.5 nM | 97.5 nM | COc1cc2nc(N)n3nc([C@@H]4CCCN(c5cnn(C(C)C(C)O)c5)C4)nc3c2cc1F (single isomer, unassigned) [Example 199, (2R,3S or 2S,3R)-3-(4-((R)-3-(5-amino-9-fluoro-8-methoxy-[1,2,4]triazolo[1,5-c]quinazolin-2-yl)piperidin-1-yl)-1H-pyrazol-1-yl)butan-2-ol] | 
10 | 2.5 nM | 102 nM | COc1cc2nc(N)n3nc([C@@H]4CCCN(c5cnn(C(C)C(C)O)c5)C4)nc3c2cc1F (single isomer, unassigned) [Example 200, (2S,3R or 2R,3S)-3-(4-((R)-3-(5-amino-9-fluoro-8-methoxy-[1,2,4]triazolo[1,5-c]quinazolin-2-yl)piperidin-1-yl)-1H-pyrazol-1-yl)butan-2-ol] | 
11 | 1.9 nM | 38.4 nM | COc1cc(F)cc2c1nc(N)n1nc([C@@H]3CCCN(c4cnn(C(C)C(C)O)c4)C3)nc21 (single isomer, unassigned) [Example 201, (2R,3S or 2S,3R)-3-(4-((R)-3-(5-amino-9-fluoro-7-methoxy-[1,2,4]triazolo[1,5-c]quinazolin-2-yl)piperidin-1-yl)-1H-pyrazol-1-yl)butan-2-ol] | 
12 | 1.4 nM | 62.4 nM | COc1cc(F)cc2c1nc(N)n1nc([C@@H]3CCCN(c4cnn(C(C)C(C)O)c4)C3)nc21 (single isomer, unassigned) [Example 202, (2S,3R or 2R,3S)-3-(4-((R)-3-(5-amino-9-fluoro-7-methoxy-[1,2,4]triazolo[1,5-c]quinazolin-2-yl)piperidin-1-yl)-1H-pyrazol-1-yl)butan-2-ol] | 
13 | 7.7 nM | 53.2 nM | CC(O)C(C)n1cc(N2CCC[C@@H](c3nc4c5cc(F)cc(F)c5nc(N)n4n3)C2)cn1 (single isomer, unassigned) [Example 203, (2R,3S or 2S,3R)-3-(4-((R)-3-(5-amino-7,9-difluoro-[1,2,4]triazolo[1,5-c]quinazolin-2-yl)piperidin-1-yl)-1H-pyrazol-1-yl)butan-2-ol] | 
14 | 7.8 nM | 87.7 nM | CC(O)C(C)n1cc(N2CCC[C@@H](c3nc4c5cc(F)cc(F)c5nc(N)n4n3)C2)cn1 (single isomer, unassigned) [Example 204, (2S,3R or 2R,3S)-3-(4-((R)-3-(5-amino-7,9-difluoro-[1,2,4]triazolo[1,5-c]quinazolin-2-yl)piperidin-1-yl)-1H-pyrazol-1-yl)butan-2-ol] | 
15 | 122 nM |  | Cc1nn(C(C)C(C)O)cc1N1CC(C)CC(c2nc3c4cc(F)cc(F)c4nc(N)n3n2)C1 (single isomer, unassigned) [Example 212, (2S,3S or 2R,3R)-3-(4-((3R,5S or 3S,5R)-3-(5-amino-7,9-difluoro-[1,2,4]triazolo[1,5-c]quinazolin-2-yl)-5-methylpiperidin-1-yl)-3-methyl-1H-pyrazol-1-yl)butan-2-ol] | 27% Inh.
16 | 331 nM | > 10000 nM | Cc1nn(C(C)C(C)O)cc1N1CC(C)CC(c2nc3c4cc(F)cc(F)c4nc(N)n3n2)C1 (single isomer, unassigned) [Example 213, (2R,3R or 2S,3S)-3-(4-((3R,5S or 3S,5R)-3-(5-amino-7,9-difluoro-[1,2,4]triazolo[1,5-c]quinazolin-2-yl)-5-methylpiperidin-1-yl)-3-methyl-1H-pyrazol-1-yl)butan-2-ol] | 
